The EC50 is the concentration that produces a half-maximal response.

Structures are written as SMILES.

Chain of human APJ receptor (P35414 whole entry): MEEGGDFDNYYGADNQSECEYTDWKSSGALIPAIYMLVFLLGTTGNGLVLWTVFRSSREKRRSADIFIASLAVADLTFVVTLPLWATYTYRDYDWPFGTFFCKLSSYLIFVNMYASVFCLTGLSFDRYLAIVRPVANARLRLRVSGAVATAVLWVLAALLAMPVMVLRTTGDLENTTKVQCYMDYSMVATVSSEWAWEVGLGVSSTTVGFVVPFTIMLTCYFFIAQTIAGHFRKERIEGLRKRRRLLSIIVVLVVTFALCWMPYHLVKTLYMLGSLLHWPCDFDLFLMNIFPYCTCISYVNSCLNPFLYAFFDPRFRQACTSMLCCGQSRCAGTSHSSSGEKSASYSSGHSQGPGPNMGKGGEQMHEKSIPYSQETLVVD

The target of the experiment is human APJ receptor (Homo sapiens (Human), UniProt P35414). The experiment can be described thus: biochemical. The experiment is classed as biochemical. The note with it: read-out: Activity hAPJ SPA EC50 IP. In short, it runs like this:
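Membranes from CHO cells stably expressing cloned human APJ were incubated with WGA SPA beads in 20 mM HEPES pH 7.5, 5 mM MgCl2, 0.1% BSA, 200 mM NaCl and 3 μM GDP. Reaction started with 0.2 nM [35S]GTPγS ± ligands, 90 min at RT. EC50 obtained by non-linear regression as mean of independent experiments.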
For the compound `COC(=O)c1cccc(-n2c(NS(=O)(=O)[C@@H](C)[C@H](OC)c3ncc(C)cn3)nnc2-c2cccc(OC)n2)c1` [Example 54.0, methyl 3-(3-((((1S,2R)-2-methoxy-1-methyl-2-(5-methyl-2-pyrimidinyl)ethyl)sulfonyl)amino)-5-(6-methoxy-2-pyridinyl)-4H-1,2,4-triazol-4-yl)benzoate], the EC50 was found to be 12 nM.
On to `COc1cccc(-c2nnc(NS(=O)(=O)[C@@H](C)[C@H](OC)c3ncc(C)cn3)n2-c2cccc(C#N)c2)n1` [Example 56.0, (1R,2S)-N-(4-(3-cyanophenyl)-5-(6-methoxy-2-pyridinyl)-4H-1,2,4-triazol-3-yl)-1-methoxy-1-(5-methyl-2-pyrimidinyl)-2-propanesulfonamide], for which the EC50 was found to be 31 nM.
The value for `COc1cnc([C@@H](OC)[C@H](C)S(=O)(=O)Nc2nnc(-c3cncc(C)c3)n2-c2c(OC)cccc2OC)nc1` [Example 57.0, (1R,2S)-N-(4-(2,6-dimethoxyphenyl)-5-(5-methyl-3-pyridinyl)-4H-1,2,4-triazol-3-yl)-1-methoxy-1-(5-methoxy-2-pyrimidinyl)-2-propanesulfonamide] was 0.55 nM; that for `COc1cnc([C@@H](OC)[C@H](C)S(=O)(=O)Nc2nnc(-c3cccnc3)n2-c2c(OC)cccc2OC)nc1` [Example 58.0, (1R,2S)-N-(4-(2,6-dimethoxyphenyl)-5-(3-pyridinyl)-4H-1,2,4-triazol-3-yl)-1-methoxy-1-(5-methoxy-2-pyrimidinyl)-2-propanesulfonamide] was 0.5 nM; that for `COc1cnc([C@@H](OC)[C@H](C)S(=O)(=O)Nc2nnc(-c3cncc(C)c3)n2-c2ccccc2)nc1` [Example 59.0, (1R,2S)-1-methoxy-1-(5-methoxy-2-pyrimidinyl)-N-(5-(5-methyl-3-pyridinyl)-4-phenyl-4H-1,2,4-triazol-3-yl)-2-propanesulfonamide] was 26 nM.
The value for `COc1cccc(-c2nnc(NS(=O)(=O)[C@@H](C)[C@H](OC)c3ncc(C)cn3)n2-c2cccc(Br)c2)n1` [Example 60.0, (1R,2S)-N-(4-(3-bromophenyl)-5-(6-methoxy-2-pyridinyl)-4H-1,2,4-triazol-3-yl)-1-methoxy-1-(5-methyl-2-pyrimidinyl)-2-propanesulfonamide] was 12 nM.
In the case of `COc1cccc(-c2nnc(NS(=O)(=O)[C@@H](C)[C@H](OC)c3ncc(C)cn3)n2-c2cccc(C)c2)n1` [Example 62.0, (1R,2S)-1-methoxy-N-(5-(6-methoxy-2-pyridinyl)-4-(3-methylphenyl)-4H-1,2,4-triazol-3-yl)-1-(5-methyl-2-pyrimidinyl)-2-propanesulfonamide], the EC50 is 6 nM.
Consider `COc1cccc(-c2nnc(NS(=O)(=O)[C@@H](C)[C@H](OC)c3ncc(C)cn3)n2-c2ccc(F)c(C(F)(F)F)c2)n1` [Example 63.0, (1R,2S)-N-(4-(4-fluoro-3-(trifluoromethyl)phenyl)-5-(6-methoxy-2-pyridinyl)-4H-1,2,4-triazol-3-yl)-1-methoxy-1-(5-methyl-2-pyrimidinyl)-2-propanesulfonamide], for which the EC50 was 350 nM.
The value for `COc1cccc(-n2c(NS(=O)(=O)[C@@H](C)[C@H](OC)c3ncc(C)cn3)nnc2-c2cccc(OC)n2)c1` [Example 64.0, (1R,2S)-1-methoxy-N-(4-(3-methoxyphenyl)-5-(6-methoxy-2-pyridinyl)-4H-1,2,4-triazol-3-yl)-1-(5-methyl-2-pyrimidinyl)-2-propanesulfonamide] was 10 nM; that for `COc1cccc(-c2nnc(NS(=O)(=O)[C@@H](C)[C@H](OC)c3ncc(C)cn3)n2-c2ccc(F)cc2)n1` [Example 65.0, (1R,2S)-N-(4-(4-fluorophenyl)-5-(6-methoxy-2-pyridinyl)-4H-1,2,4-triazol-3-yl)-1-methoxy-1-(5-methyl-2-pyrimidinyl)-2-propanesulfonamide] was 180 nM.
As for `COc1cccc(-c2nnc(NS(=O)(=O)[C@@H](C)[C@H](OC)c3ncc(C)cn3)n2-c2cccc(Cl)c2)n1` [Example 66.0, (1R,2S)-N-(4-(3-chlorophenyl)-5-(6-methoxy-2-pyridinyl)-4H-1,2,4-triazol-3-yl)-1-methoxy-1-(5-methyl-2-pyrimidinyl)-2-propanesulfonamide], the EC50 is 24 nM.
As for `COc1cccc(-c2nnc(NS(=O)(=O)[C@@H](C)[C@H](OC)c3ncc(C)cn3)n2-c2cc(Cl)cc(Cl)c2)n1` [Example 68.0, (1R,2S)-N-(4-(3,5-dichlorophenyl)-5-(6-methoxy-2-pyridinyl)-4H-1,2,4-triazol-3-yl)-1-methoxy-1-(5-methyl-2-pyrimidinyl)-2-propanesulfonamide], the EC50 was 60 nM.
Take `COc1cccc(-c2nnc(NS(=O)(=O)[C@@H](C)[C@H](OC)c3ncc(C)cn3)n2-c2ccc(F)c(F)c2)n1` [Example 71.0, (1R,2S)-N-(4-(3,4-difluorophenyl)-5-(6-methoxy-2-pyridinyl)-4H-1,2,4-triazol-3-yl)-1-methoxy-1-(5-methyl-2-pyrimidinyl)-2-propanesulfonamide]: the EC50 is 210 nM.
The value for `COc1cccc(-c2nnc(NS(=O)(=O)[C@@H](C)[C@H](OC)c3ncc(C)cn3)n2-c2cccc(C(C)=O)c2)n1` [Example 72.0, (1R,2S)-N-(4-(3-acetylphenyl)-5-(6-methoxy-2-pyridinyl)-4H-1,2,4-triazol-3-yl)-1-methoxy-1-(5-methyl-2-pyrimidinyl)-2-propanesulfonamide] was 9.1 nM.
Consider `COc1cccc(-c2nnc(NS(=O)(=O)[C@@H](C)[C@H](OC)c3ncc(C)cn3)n2-c2c(Cl)cccc2Cl)n1` [Example 73.0, (1R,2S)-N-(4-(2,6-dichlorophenyl)-5-(6-methoxy-2-pyridinyl)-4H-1,2,4-triazol-3-yl)-1-methoxy-1-(5-methyl-2-pyrimidinyl)-2-propanesulfonamide], for which the EC50 is 0.76 nM.
Consider `COc1cccc(-c2nnc(NS(=O)(=O)[C@@H](C)[C@H](OC)c3ncc(C)cn3)n2-c2cccc(C(F)(F)F)c2)n1` [Example 75.0, (1R,2S)-1-methoxy-N-(5-(6-methoxy-2-pyridinyl)-4-(3-(trifluoromethyl)phenyl)-4H-1,2,4-triazol-3-yl)-1-(5-methyl-2-pyrimidinyl)-2-propanesulfonamide], for which the EC50 stood at 12 nM.
The value for `COc1cccc(-c2nnc(NS(=O)(=O)[C@@H](C)[C@H](OC)c3ncc(C)cn3)n2-c2ccc(N(C)C)cc2)n1` [Example 77.0, (1R,2S)-N-(4-(4-(dimethylamino)phenyl)-5-(6-methoxy-2-pyridinyl)-4H-1,2,4-triazol-3-yl)-1-methoxy-1-(5-methyl-2-pyrimidinyl)-2-propanesulfonamide] was 7 nM; that for `COc1cccc(-c2nnc(NS(=O)(=O)[C@@H](C)[C@H](C)c3ncc(F)cn3)n2-c2ccccc2)n1` [Example 78.0, (2S,3R)-3-(5-fluoro-2-pyrimidinyl)-N-(5-(6-methoxy-2-pyridinyl)-4-phenyl-4H-1,2,4-triazol-3-yl)-2-butanesulfonamide] was 9.4 nM.
As for `CCO[C@H](c1ncc(F)cn1)[C@H](C)S(=O)(=O)Nc1nnc(-c2cncc(C)c2)n1-c1c(OC)cccc1OC` [Example 79.0, (1R,2S)-N-(4-(2,6-dimethoxyphenyl)-5-(5-methyl-3-pyridinyl)-4H-1,2,4-triazol-3-yl)-1-ethoxy-1-(5-fluoro-2-pyrimidinyl)-2-propanesulfonamide], the EC50 was determined as 0.41 nM.
`COc1cccc(OC)c1-n1c(NS(=O)(=O)[C@@H](C)[C@H](O)c2ncc(F)cn2)nnc1-c1cccnc1` [Example 82.0, (1R,2S)-N-(4-(2,6-dimethoxyphenyl)-5-(3-pyridinyl)-4H-1,2,4-triazol-3-yl)-1-(5-fluoro-2-pyrimidinyl)-1-hydroxy-2-propanesulfonamide]: the EC50 stood at 2.8 nM.
Turning to `COc1cc(-c2nnc(NS(=O)(=O)[C@@H](C)[C@H](C)c3ncc(C)cn3)n2-c2c(OC)cccc2OC)ccn1` [Example 84.0, (2S,3R)-N-(4-(2,6-dimethoxyphenyl)-5-(2-methoxypyridin-4-yl)-4H-1,2,4-triazol-3-yl)-3-(5-methylpyrimidin-2-yl)butane-2-sulfonamide], the EC50 came out at 5.2 nM.
Turning to `COc1cccc(OC)c1-n1c(NS(=O)(=O)[C@@H](C)[C@H](C)c2ncc(C)cn2)nnc1-c1ccnc(C)c1` [Example 85.0, (2S,3R)-N-(4-(2,6-dimethoxyphenyl)-5-(2-methylpyridin-4-yl)-4H-1,2,4-triazol-3-yl)-3-(5-methylpyrimidin-2-yl)butane-2-sulfonamide], the EC50 was found to be 5.2 nM.
Turning to `COc1cncc(-c2nnc(NS(=O)(=O)[C@@H](C)[C@H](C)c3ncc(C)cn3)n2-c2c(OC)cccc2OC)c1` [Example 86.0, (2S,3R)-N-(4-(2,6-dimethoxyphenyl)-5-(5-methoxypyridin-3-yl)-4H-1,2,4-triazol-3-yl)-3-(5-methylpyrimidin-2-yl)butane-2-sulfonamide], the EC50 worked out at 1.3 nM.
Take `COc1cccc(OC)c1-n1c(NS(=O)(=O)[C@@H](C)[C@H](C)c2ncc(C)cn2)nnc1-c1cccc(C)n1` [Example 87.0, (2S,3R)-N-(4-(2,6-dimethoxyphenyl)-5-(6-methylpyridin-2-yl)-4H-1,2,4-triazol-3-yl)-3-(5-methylpyrimidin-2-yl)butane-2-sulfonamide]: the concentration for a half-maximal effect (EC50) came out at 0.4 nM.
Regarding `COc1cccc(OC)c1-n1c(NS(=O)(=O)[C@@H](C)[C@H](OC)c2ncc(Cl)cn2)nnc1-c1cccc(C)n1` [Example 88.0, (1R,2S)-1-(5-chloropyrimidin-2-yl)-N-(4-(2,6-dimethoxyphenyl)-5-(6-methylpyridin-2-yl)-4H-1,2,4-triazol-3-yl)-1-methoxypropane-2-sulfonamide], the EC50 was found to be 0.37 nM.
With `COc1cccc(OC)c1-n1c(NS(=O)(=O)[C@H](C)[C@@H](OC)c2ncc(Cl)cn2)nnc1-c1cccc(C)n1` [Example 89.0, (1S,2R)-1-(5-chloropyrimidin-2-yl)-N-(4-(2,6-dimethoxyphenyl)-5-(6-methylpyridin-2-yl)-4H-1,2,4-triazol-3-yl)-1-methoxypropane-2-sulfonamide], the EC50 worked out at 11 nM.

The values above are taken from patent US10058550B2, “Methods of treating heart failure” (priority 2015, dated 2018).
